From article PMC11504387, “Synthesis and Biological Activity Assessment of 2-Styrylbenzothiazoles as Potential Multifunctional Therapeutic Agents” (Antioxidants, 2024)
Marks after values point to notes of the source that are not given here.

What was measured:
[1] = DPPH radical scavenging activity; type: biochemical; settings: mean ± SD; for DPPH Inhibition %: 1 mg/mL
Procedure: For all the compounds, 0.750 mL of a DMSO-MeOH solution mixed with 1.5 mL of DPPH solution (0.004%) in MeOH was analysed. The samples were kept in the dark at room temperature for 30 min and then analysed with a spectrophotometer by reading the absorbance at 517 nm (lambda max of the absorption spectrum of the DPPH radical). Equation (5) was used to obtain the percentage inhibition (%) of the radical: DPPH radical-scavenging capacity (%) = [1 − (A1 − A2)/A0] × 100%(5) where A2 is the blank (MeOH), and A1 and A0 are, respectively, the recorded absorbances of the sample and control (0.750 MeOH and 1.5 mL DPPH solution), directly proportional to the concentration of residual DPPH. An initial screening was performed by testing all compounds at a concentration of 1 mg/mL (Trolox® was used as the standard); subsequently, compounds showing >90% radical inhibition were further tested to calculate their IC50 value (expressed in µg/mL). Ferulic acid was used as positive control. A linear regression was performed to calculate the sample concentration able to eliminate 50% of DPPH free radicals.

ORAC assay = type: biochemical; settings: Trolox equivalents; mean ± SD
Procedure: The ORAC assay was performed based on the previously modified Hong procedure. The sodium salt of fluorescein (85 nM) was used as a target for free radical attack with 2,2′-azobis(2-amidinopropane) dichloride (AAPH) as a peroxyl radical generator in the final assay mixture (total volume of 0.2 mL). The test involves a calibration curve of Trolox (standard control) with different concentrations (40 to 240 μM). The compounds tested were first dissolved in DMSO:MeOH and then diluted in phosphate buffer solution pH 7.4. Fluorescence measurements were performed at 37 °C and recorded at 5-min intervals up to 30 min after the addition of AAPH. ORAC values were calculated as the difference in areas under the fluorescein quenching curves between the blank and the sample and were expressed as µmol Trolox equivalents (TE) per gram of dried sample.

skin HaCat keratinocytes = experiment: Cell growth inhibition assay, HaCat; type: cell-based, human; settings: Homo sapiens, HaCaT; 24 h incubation; mean ± SD
Procedure: Cell growth inhibition analyses were performed on human melanoma Colo38 cells and skin HaCat keratinocytes. Human melanoma Colo38 cells were kindly given by Dr. Patrizio Giacomini (Laboratory of Immunology, Regina Elena Institute, Rome, Italy). HaCat cells were obtained from Istituto Zooprofilattico Sperimentale della Lombardia e dell’Emilia-Romagna, Brescia, Italy. Cells were seeded at 40,000 cells/mL and 25,000 cells/mL, respectively. Colo38 cells were maintained in RPMI 1640, supplemented with 10% foetal bovine serum (FBS), penicillin (100 Units/mL), and streptomycin (100 µg/mL). HaCat cells were maintained in DMEM, supplemented with 10% fatal bovine serum (FBS), penicillin (100 Units/mL), streptomycin (100 µg/mL) and glutamine (2 mM); the incubation was performed at 37 °C in a 5% CO2 atmosphere. Compounds were dissolved in DMSO to obtain 50 mM stock solutions and diluted before cell treatment in MeOH. The tested compounds were added at serial dilutions to the cell cultures (from 0.1 to 100 µM) and incubated for 24 h further. Cells were then harvested, suspended in physiological solution, and counted with a Z2 Coulter Counter (Coulter Electronics, Hialeah, FL, USA). The number of cells/mL and the IC50 values were determined when untreated cells were in the log phase of cell growth. Samples of vehicles and untreated cells were included in each plate. Cisplatin was used as positive control for the HaCat cells, while N1-(4-arylidene)-1H-(2-OH-4-N(Et)2-phenyl)-[d]imidazole-2-carbohydrazide was used as positive control for the Colo38 cell line.

PMNL = experiment: ROS production in PMA-stimulated PMNL; type: cell-based, human; settings: 10 µM; for ROS Production (% of Control): mean ± SD
Procedure: After 10 min at 37 °C, PMA (0.1 μM) was added. The fluorescence emission at 530 nm was measured after excitation at 485 nm in a thermally controlled (37 °C) NOVOstar microplate reader (BMG Lab technologies GmbH, Offenburg, Germany). […] ROS generation was induced by phorbol-12-myristate-13-acetate (PMA), a widely recognized agent for stimulating ROS production in neutrophils and enhancing endogenous superoxide formation. Diphenyleneiodonium (DPI, 10 µM), a NADPH oxidase inhibitor, served as a positive control. Through this assay, we could assess the potential interaction of our compounds with intracellular ROS production and their capacity to act as radical scavengers within a relevant cellular context. Furthermore, the outcomes provided additional insights into their inhibitory mechanism and helped to determine whether they act directly or non-specifically, as there is evidence that an impact on the ROS levels in PMNL could be translated to modulation of 5-LO activity in the cellular environment. […] With those data in hand, together with 5-LO inhibition assay outcomes, a direct inhibition of the enzyme stands as the best fitting option regarding the mechanism of action of compounds BZTst4 and BZTst6. […] This phenomenon was not further explored because such investigation was beyond the scope of this work.

DPPH IC50 (sample concentration able to scavenge 50% of the DPPH radical) ([1]; values in brackets) | SMILES | DPPH Inhibition % [1] | ORAC (ORAC assay) | IC50 (skin HaCat keratinocytes) | Effect on ROS production (in words) (PMNL) | ROS Production (% of Control) (PMNL) | Lowering of ROS production (PMNL)
 | C(=C\c1nc2ccccc2s1)/c1ccccc1 [BZTst1, (E)-2-styrylbenzo[d]thiazole] | <LOQ ^b | <LOQ ^b | > 100 µM | do not display any significant interference | 124.78 ± 17.88 % of control | 
 | Oc1ccc(/C=C/c2nc3ccccc3s2)cc1 [BZTst2, (E)-4-(2-(benzo[d]thiazol-2-yl)vinyl)phenol] | 26.70 ± 0.83% | 11,614.64 ± 1184.06 µmolTE/g | 85.8 ± 17.9 µM | unexpected rise in the ROS level | >150% ^a % of control | 
 | COc1ccc(/C=C/c2nc3ccccc3s2)cc1 [BZTst3, (E)-2-(4-methoxystyryl)benzo[d]thiazole] | <LOQ ^b | 1077.84 ± 98.52 µmolTE/g | > 100 µM | do not display any significant interference | 108.70 ± 12.15 % of control | 
10.46 ± 0.27 µg/mL | Oc1ccc(/C=C/c2nc3ccccc3s2)cc1O [BZTst4, (E)-4-(2-(benzo[d]thiazol-2-yl)vinyl)benzene-1,2-diol] | 88.54 ± 0.47% | <LOQ ^b | 80.2 ± 24.7 µM |  | 53.81 ± 16.30 % of control | < 50%
 | COc1ccc(/C=C/c2nc3ccccc3s2)cc1O [BZTst5, (E)-5-(2-(benzo[d]thiazol-2-yl)vinyl)-2-methoxyphenol] | 46.88 ± 0.60% | <LOQ ^b | 86 ± 40.7 µM | do not display any significant interference | 99.62 ± 4.14 % of control | 
 | COc1cc(/C=C/c2nc3ccccc3s2)ccc1O [BZTst6, (E)-4-(2-(benzo[d]thiazol-2-yl)vinyl)-2-methoxyphenol] | 18.86 ± 0.11 ^c % | 19,027.54 ± 46.67 µmolTE/g | > 100 µM |  | 62.50 ± 5.62 % of control | < 50%
